Test results taken from patent publication US7285569B2, “Tricycles, their manufacture and use as pharmaceutical agents” (Hoff Hoffmann-La Roche Inc., priority 2004, dated 2007).

What was measured:
[1] = molecular target: T1, Aurora A (Homo sapiens, UniProt O14965); test: IC50 determination for inhibitors of Aurora A (96 MTP-ELISA); format: biochemical; settings: His4-tagged full-length Aurora A 250 ng/ml, PKB-GSK2 200 nM, ATP 4 μM, 90 min at room temperature; read-out: IC50 Aurora A kinase inhibition
T1 construct: C-terminally Histidine4 (His4)-tagged Aurora A full-length protein
T1 sequence (O14965 1-403): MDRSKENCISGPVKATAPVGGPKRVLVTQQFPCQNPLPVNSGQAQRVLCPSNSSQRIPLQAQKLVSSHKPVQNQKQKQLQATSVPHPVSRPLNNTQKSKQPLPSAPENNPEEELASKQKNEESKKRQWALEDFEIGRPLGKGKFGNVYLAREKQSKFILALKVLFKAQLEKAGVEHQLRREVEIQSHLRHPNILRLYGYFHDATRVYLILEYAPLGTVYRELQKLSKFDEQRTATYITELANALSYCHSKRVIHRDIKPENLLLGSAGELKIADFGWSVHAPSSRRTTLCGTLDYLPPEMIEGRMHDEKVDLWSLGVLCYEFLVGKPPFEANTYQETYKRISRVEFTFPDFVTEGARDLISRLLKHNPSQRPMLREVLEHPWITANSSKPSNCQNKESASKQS
Excerpt: IC50 Determination for Inhibitors of Aurora A
Aurora A is a serine threonine kinase involved in spindle assembly and chromosome segregation.
The assay is a typically ELISA-type assay where biotinylated substrate (PKB-GSK2) is phosphorylated. Phosphorylation is detected by peroxidase (POD) labelled polyclonal antibody (PAK<M-Ig>S-IgG-POD) and phosphopeptide monoclonal antibody (Mab) (MAK<P-GSK>M-27E5-IgG). The assay is validated for IC50-determination.
Aurora A-His-4 C-terminally Histidine4 (His4)-tagged Aurora A full-length protein, stock solution 0.7 mg/ml, final conc.: 250 ng/ml
PKB-GSK2 biotinylated peptide derived from human GSK3-alpha sequence (Biotin-SGRARTSSFAEPGG-CONH2), stock solution 600 μM, final conc.: 200 nM
ATP Adenosine-5′-triphosphate 1 mM, diluted in kinase buffer, (Roche Diagnostics GmbH, Cat. No.: 127531-001,), final conc.: 4 μM
Kinase buffer 50 mM TRIS, 10 mM MgCl2, 1 mM DTT, 0.1% Tween 20, pH 7.8
This assay is performed in 96-well format for IC50 determination with 5 samples (each with 8 concentrations by twofold testing), 100 μl incubation volume and the following plate layout:
Step/Action 1. Sample preparation: add 24 μl per well samples (descending sequence) diluted in kinase buffer to assay plate (final conc. for DMSO 1%). 2. Add directly 16 μl Aurora-A-his-4 diluted in kinase buffer to assay plate. 3. Add directly 40 μl per well PKB-GSK2/ATP mixture to assay plate, (final conc.: Aurora A=250 ng/ml, GSK2=200 nM, ATP=4 μM). Negative control: without ATP. 4. Incubate assay plate for exactly 90 min at room temperature. 5. Stop reaction by adding 20 μl EDTA in all wells. 6. Wash assay plate 3× with 200 μl washing buffer per well. 7. Add 100 μl MAK<P-GSK>M27E5-IgG (1:10000) and PAK<M-Ig>S-IgG-POD (1:6000) dissolved in 3% BSA/PBS-T to assay plate per well. 8. Incubate assay plate for 60 min at room temperature. 9. Wash assay plate 3× with 200 μl washing buffer per well 10. Add 100 μl ABTS solution to assay plate per well, incubate for approx. 4 min at RT on MTP shaker. 11. Measure absorption at 405/492 nm. 12. Calculate % inhibition as: (1−(Esample−ENC)/(EPC−ENC))×100 13. Calculate IC50 using a non-linear curve fit (XLfit software (ID Business Solution Ltd., Guilford, Surrey, UK))

[2] = tested on: HCT 116 cells; test: CellTiter-Glo assay in HCT 116 cells (antiproliferative activity); format: cell-based; settings: HCT 116 human colon carcinoma cells, 5 days (120 h) incubation, CellTiter-Glo luminescence
Excerpt: Antiproliferative Activity
CellTiter-Glo™ Assay in HCT 116 Cells
The CellTiter-Glo™ Luminescent Cell Viability Assay (Promega) is a homogeneous method of determining the number of viable cells in culture based on quantitation of the ATP present, which signals the presence of metabolically active cells.
HCT 116 cells (human colon carcinoma, ATCC-No. CCI-247) were cultivated in RPMI 1640 medium with GlutaMAX™ I (Invitrogen, Cat-No. 61870-010), 2.5% Fetal Calf Serum (FCS, Sigma Cat-No. F4135 (FBS)); 100 Units/ml penicillin/100 μg/ml streptomycin (=Pen/Strep from Invitrogen Cat. No. 15140). For the assay the cells were seeded in 384 well plates, 1000 cells per well, in the same medium. The next day the test compounds were added in various concentrations ranging from 30 μM to 0.0015 μM (10 concentrations, 1:3 diluted). After 5 days the CellTiter-Glo™ assay was done according to the instructions of the manufacturer (CellTiter-Glo™ Luminescent Cell Viability Assay, from Promega). In brief: the cell-plate was equilibrated to room temperature for approximately 30 minutes and than the CellTiter-Glo™ reagent was added. The contents were carefully mixed for 15 minutes to induce cell lysis. After 45 minutes the luminescent signal was measured in Victor 2, (scanning multiwell spectrophotometer, Wallac).
Medium: RPMI 1640 with GlutaMAX™ I (Invitrogen, Cat-Nr. 61870), 5% FCS (Sigma Cat.-No. F4135), Pen/Strep (Invitrogen, Cat No. 15140).
HCT116 (ATCC-No. CCI-247): 1000 cells in 60 μl per well of 384 well plate (Greiner 781098, μClear-plate white)
After seeding incubate plates 24 h at 37° C., 5% CO2
2nd. Day: Induction (Treatment with Compounds, 10 Concentrations):
In order to achieve a final concentration of 30 μM as highest concentration 3.5 μl of 10 mM compound stock solution were added directly to 163 μl media. Then step e) of the dilution procedure described below, was followed.
In order to achieve the second highest to the lowest concentrations, a serial dilution with dilution steps of 1:3 was followed according to the procedure (a-e) as described here below: • for the second highest concentration add 10 μl of 10 mM stock solution of compound to 20 μl dimethylsulfoxide (DMSO) • dilute 8×1:3 (always 10 μl to 20 μl DMSO) in this DMSO dilution row (results in 9 wells with concentrations from 3333.3 μM to 0.51 μM) • dilute each concentration 1:47.6 (3.5 μl compound dilution to 163 μl media) • add 10 μl of every concentration to 60 μl media in the cell plate resulting in final concentration of DMSO: 0.3% in every well and resulting in 10 final concentration of compounds ranging from 30 μM to 0.0015 μM. • Each compound is tested in triplicate. • Incubate 120 h (5 days) at 37° C., 5% CO2 Analysis:
Add 30 μl CellTiter-Glo™ Reagent (prepared from CellTiter-Glo™ Buffer and CellTiter-Glo™ Substrate (lyophilized) purchased from Promega) per well, • shake 15 minutes at room temperature • incubate further 45 minutes at room temperature without shaking Measurement:
Victor 2 scanning multiwell spectrophotometer (Wallac), Luminescence mode (0.5 sec/read, 477 nm)
Determine IC50 using a non-linear curve fit (XLfit software (ID Business Solution Ltd., Guilford, Surrey, UK))

| IC50 [1] | IC50 [2] | Compound |
| --- | --- | --- |
| 10 to 500 nM | 100 to 10000 nM | O=C1Nc2cc3[nH]c(-c4ccn[nH]4)nc3cc2C12CCCC2 [Example 27, 2-(2H-pyrazol-3-yl)-spiro-5,7-dihydro[cyclopentane-1′,7-imidazo[4,5-f]indol]-6(3H)-one] |
| 500 to 1500 nM | 100 to 10000 nM | CC1(C)CC(=O)Nc2cc3nc(-c4cc[nH]n4)[nH]c3cc21 [Example 24, 8,8-Dimethyl-2-(1H-pyrazol-3-yl)-1,5,7,8-tetrahydro-imidazo[4,5-g]quinolin-6-one] |
| 500 to 1500 nM | 10000 to 100000 nM | Cc1cc(-c2nc3cc4[nH]c(=O)[nH]c4cc3[nH]2)n[nH]1 [Example 9, 6-(5-Methyl-1H-pyrazol-3-yl)-3,5-dihydro-1H-benzo[1,2-d;4,5-d′]diimidazol-2-one] |
| 10 to 500 nM | 100 to 10000 nM | Cc1cc(-c2nc3cc4c(cc3[nH]2)NC(=O)C4(C)C)n[nH]1 [Example 5, 7,7-Dimethyl-2-(5-methyl-2H-pyrazol-3-yl)-5,7-dihydro-3H-imidazo[4,5-f]indol-6-one] |
| 10 to 500 nM | 4670 nM | CC(=O)N1CC(C)(C)c2cc3nc(-c4cc(C)n[nH]4)[nH]c3cc21 [Example 2, 1-[7,7-Dimethyl-2-(5-methyl-2H-pyrazol-3-yl)-6,7-dihydro-3H-imidazo[4,5-f]indol-5-yl]-ethanone] |
| 212 nM | 10000 to 100000 nM | Cc1cc(-c2nc3cc4c(cc3[nH]2)C(C)(C)CC(=O)N4)n[nH]1 [Example 3, 8,8-Dimethyl-2-(5-methyl-1H-pyrazol-3-yl)-1,5,7,8-tetrahydro-imidazo[4,5-g]quinolin-6-one] |
| 10 to 500 nM | 100 to 10000 nM | Cc1cc(-c2nc3cc4c(cc3[nH]2)C(C)(C)C(=O)N4C(C)C)[nH]n1 [Example 34, 5-Isopropyl-7,7-dimethyl-2-(5-methyl-2H-pyrazol-3-yl)-5,7-dihydro-1H-imidazo[4,5-f]indol-6-one] |
| 500 to 1500 nM | 100 to 10000 nM | CC(C)c1cc(-c2nc3cc4c(cc3[nH]2)NC(=O)C42CCCC2)[nH]n1 [Example 28, 2-(5-Isopropyl-2H-pyrazol-3-yl)-spiro-5,7-dihydro[cyclopentane-1′,7-imidazo[4,5-f]indol]-6(3H)-one] |
| 10 to 500 nM | 100 to 10000 nM | CCCc1cc(-c2nc3cc4c(cc3[nH]2)C(C)(C)C(=O)N4C(C)C)[nH]n1 [Example 35, 5-Isopropyl-7,7-dimethyl-2-(5-propyl-2H-pyrazol-3-yl)-5,7-dihydro-1H-imidazo[4,5-f]indol-6-one] |
| 10 to 500 nM | 100 to 10000 nM | CC(C)CCc1cc(-c2nc3cc4c(cc3[nH]2)C(C)(C)C(=O)N4)n[nH]1 [Example 18, 7,7-Dimethyl-2-[5-(3-methyl-butyl)-1H-pyrazol-3-yl]-5,7-dihydro-1H-imidazo[4,5-f]indol-6-one] |
| 500 to 1500 nM | 100 to 10000 nM | CC(C)Cc1cc(-c2nc3cc4c(cc3[nH]2)C(C)(C)C(=O)N4)[nH]n1 [Example 6, 2-(5-isobutyl-2H-pyrazol-3-yl)-7,7-dimethyl-5,7-dihydro-1H-imidazo[4,5-f]indol-6-one] |
| 158 nM | 10000 to 100000 nM | Cc1cc(-c2nc3cc4[nH]c(=O)n(C(C)C)c4cc3[nH]2)n[nH]1 [Example 11, 3-Isopropyl-6-(5-methyl-1H-pyrazol-3-yl)-3,5-dihydro-1H-benzo[1,2-d;4,5-d′]diimidazol-2-one] |
| 10 to 500 nM | 100 to 10000 nM | CCCc1cc(-c2nc3cc4c(cc3[nH]2)C(C)(C)CC(=O)N4)[nH]n1 [Example 23, 8,8-Dimethyl-2-(5-propyl-2H-pyrazol-3-yl)-1,5,7,8-tetrahydro-imidazo[4,5-g]quinolin-6-one] |
| 10 to 500 nM |  | Cc1cc(-c2nc3cc4[nH]c(=O)n(C)c4cc3[nH]2)n[nH]1 [Example 10, 3-Methyl-6-(5-methyl-1H-pyrazol-3-yl)-3,5-dihydro-1H-benzo[1,2-d;4,5-d′]diimidazol-2-one] |
| 10 to 500 nM | 100 to 10000 nM | Cc1cc(-c2nc3cc4c(cc3[nH]2)N(C)C(=O)C4(C)C)n[nH]1 [Example 31, 5,7,7-Trimethyl-2-(5-methyl-1H-pyrazol-3-yl)-5,7-dihydro-3H-imidazo[4,5-f]indol-6-one] |
| 10 to 500 nM | 100 to 10000 nM | CCCc1cc(-c2nc3cc4c(cc3[nH]2)N(CCC)C(=O)C4(C)C)[nH]n1 [Example 37, 7,7-Dimethyl-5-propyl-2-(5-propyl-2H-pyrazol-3-yl)-5,7-dihydro-3H-imidazo[4,5-f]indol-6-one] |
| 10 to 500 nM | 100 to 10000 nM | CCCN1C(=O)C(C)(C)c2cc3[nH]c(-c4cc(C)n[nH]4)nc3cc21 [Example 36, 7,7-Dimethyl-2-(5-methyl-2H-pyrazol-3-yl)-5-propyl-5,7-dihydro-1H-imidazo[4,5-f]indol-6-one] |
| 500 to 1500 nM | 7650 nM | CC(C)Cc1cc(-c2nc3cc4c(cc3[nH]2)C(C)(C)CC(=O)N4)[nH]n1 [Example 4, 2-(5-Isobutyl-2H-pyrazol-3-yl)-8,8-dimethyl-1,5,7,8-tetrahydro-imidazo[4,5-g]quinolin-6-one] |
| 10 to 500 nM | 100 to 10000 nM | Cc1[nH]nc(-c2nc3cc4c(cc3[nH]2)C(C)(C)C(=O)N4)c1C [Example 17, 2-(4,5-Dimethyl-1H-pyrazol-3-yl)-7,7-dimethyl-5,7-dihydro-1H-imidazo[4,5-f]indol-6-one] |
